These results are taken from patent US12459951B2, “Compounds that interact with RAS superfamily proteins for treatment of cancers, inflammatory diseases, rasopathies, and fibrotic disease” (SHY Therapeutics, LLC, priority 2022, dated 2025).

Molecules are shown by their SMILES. Structures can show the parent of a compound that is named as a salt.

One assay concerns JNK phosphorylation. Kind of assay: JNK Activation Assay (western blot), Panc-1. It is filed as cell-based, human. To be noted: at 10 μM, Panc-1 pancreatic cancer cell line; starred symbols = activation. The method in brief: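 KRas G12C Panc-1 cells treated 6 h at 37 °C with compound at 10 μM (0.3% DMSO), or serial dilutions for IC50. In Method 1 cells were serum-starved overnight (0.5% FBS) then stimulated with 1.5 ng/ml EGF for 15 min; Method 2 used 10% FBS without stimulation. Phospho-JNK (Thr183/Tyr185) measured by western blot.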
Background: In western blotting, separated proteins are transferred to a membrane and probed.

Another assay concerns MAPK p38 phosphorylation. The assay can be described thus: MAPK p38 Activation Assay (western blot), Panc-1. The class given is cell-based, human. To be noted: at 10 μM, Panc-1 pancreatic cancer cell line; starred symbols = activation. The method in brief:
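Panc-1 cells (KRas G12D) were treated with compound for 6 h at 37 °C, at 10 μM or as serial dilutions for IC50, with 0.3% DMSO. Method 1 used overnight serum-starved cells (0.5% FBS) stimulated with 1.5 ng/ml EGF for 15 min; Method 2 used unstimulated cells in 10% FBS. Phospho-p38 (Thr180/Tyr182) was detected by western blot.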

Another assay concerns the target T1, Rheb (Homo sapiens, UniProt Q15382).
T1 construct: made in house
Kind of assay: Rheb GTP Binding Domain Inhibition Assay. To be noted: read-out: Rheb: % inh. The method in brief: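 His-tagged cdc42 or Rheb (10–30 μg/mL) bound to nickel plates, then exposed to compound (20 μM, or serial dilutions for IC50) in 1% DMSO for 3 h at room temperature, ±Sos during final hour. Cy3- or Cy5-GTP (100 nM) added for 45 min; bound labelled GTP read by fluorescence after washes.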

T1 sequence (Q15382 whole entry): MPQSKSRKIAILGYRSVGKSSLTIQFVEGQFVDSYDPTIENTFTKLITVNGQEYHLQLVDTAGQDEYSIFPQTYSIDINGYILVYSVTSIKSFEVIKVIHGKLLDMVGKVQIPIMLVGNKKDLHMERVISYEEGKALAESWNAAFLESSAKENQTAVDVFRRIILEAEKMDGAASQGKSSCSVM

For `CO[C@H]1CC[C@@H](Nc2nc(-c3nccn3C)nn3cc(-c4ccn(C(C)C)n4)c(C)c23)C1` (racemic) [Compound 1, rac 6-(1-Isopropyl-1H-pyrazol-3-yl)-N-((1R,3S)-3-methoxycyclopentyl)-5-methyl-2-(1-methyl-1H-imidazol-2-yl)pyrrolo[2,1-f][1,2,4]triazin-4-amine], the “% inh of JNK in Panc-1” value with JNK phosphorylation is reported as “F* (F* = 31-74% activation)”. The “% inh of MAPK p38 in Panc-1” value in the assay on MAPK p38 phosphorylation is “H* (H* ≥ 100% activation)”. Turning to `CO[C@H]1CC[C@@H](Nc2nc(-c3nccn3C)nn3cc(-c4ccn(C(C)C)n4)c(-c4ccccc4)c23)C1` (racemic) [Compound 18, rac 6-(1-Isopropyl-1H-pyrazol-3-yl)-N-((1R,3S)-3-methoxycyclopentyl)-2-(1-methyl-1H-imidazol-2-yl)-5-phenylpyrrolo[2,1-f][1,2,4]triazin-4-amine hydrochloride], the “% inh of JNK in Panc-1” value in the assay with JNK phosphorylation is on record as “F* (F* = 31-74% activation)”. Also, the “% inh of MAPK p38 in Panc-1” value in the assay with MAPK p38 phosphorylation is recorded as “H* (H* ≥ 100% activation)”. In the same order, the values of `COc1cccc(Nc2nc(-c3nccn3C)nn3cc(-c4ccn(C(C)C)n4)c(C)c23)n1` [Compound 7, 6-(1-Isopropyl-1H-pyrazol-3-yl)-N-(6-methoxypyridin-2-yl)-5-methyl-2-(1-methyl-1H-imidazol-2-yl)pyrrolo[2,1-f][1,2,4]triazin-4-amine] are “H* (H* ≥ 100% activation)” and “H* (H* ≥ 100% activation)”. The like results for `COC[C@@H]1CC[C@@H]1CNc1nc(-c2nccn2C)nn2cc(-c3ccn(C(C)C)n3)c(-c3ccccc3)c12` (racemic) [Compound 20, rac 6-(1-Isopropyl-1H-pyrazol-3-yl)-N-(((1S,2R)-2-(methoxymethyl)cyclobutyl)methyl)-2-(1-methyl-1H-imidazol-2-yl)-5-phenylpyrrolo[2,1-f][1,2,4]triazin-4-amine] were, in that order, “H* (H* ≥ 100% activation)” and “H* (H* ≥ 100% activation)”. For the compound `COc1cccc(-c2cn3nc(-c4nccn4C)nc(N[C@@H]4CC[C@@H](OC)C4)c3c2-c2ccccc2)c1Cl.Cl` (racemic) [Compound 34, rac 6-(2-Chloro-3-methoxyphenyl)-N-((1R,3R)-3-methoxycyclopentyl)-2-(1-methyl-1H-imidazol-2-yl)-5-phenylpyrrolo[2,1-f][1,2,4]triazin-4-amine hydrochloride], in the assay on JNK phosphorylation, the “% inh of JNK in Panc-1” value was “H (H = 100% inhibition)”. For the same compound, the “% inh of MAPK p38 in Panc-1” value with MAPK p38 phosphorylation is recorded as “H (H = 100% inhibition)”. The inhibition at 20 µM at Rheb was 26 to 49%. In the case of `COC1CCCN(c2nc(-c3nccn3C)nn3cc(-c4ccn(C(C)C)n4)c(-c4ccccc4)c23)C1` (racemic) [Compound 21, rac 6-(1-Isopropyl-1H-pyrazol-3-yl)-4-(3-methoxypiperidin-1-yl)-2-(1-methyl-1H-imidazol-2-yl)-5-phenylpyrrolo[2,1-f][1,2,4]triazine], the “% inh of JNK in Panc-1” value in the assay on JNK phosphorylation is “H* (H* ≥ 100% activation)”. Also, the “% inh of MAPK p38 in Panc-1” value in the assay on MAPK p38 phosphorylation is on record as “H* (H* ≥ 100% activation)”. As to `COC[C@@H]1CC[C@@H]1CNc1nc(-c2nccn2C)nn2cc(-c3ccn(C(C)C)n3)c(C)c12` (racemic) [Compound 3, rac 6-(1-Isopropyl-1H-pyrazol-3-yl)-N-(((1S,2R)-2-(methoxymethyl)cyclobutyl)methyl)-5-methyl-2-(1-methyl-1H-imidazol-2-yl)pyrrolo[2,1-f][1,2,4]triazin-4-amine], in the assay with JNK phosphorylation, the “% inh of JNK in Panc-1” value is “H* (H* ≥ 100% activation)”. For the same compound, in the assay on MAPK p38 phosphorylation, the “% inh of MAPK p38 in Panc-1” value is listed as “H* (H* ≥ 100% activation)”.

Consider `COCC1CCN(c2nc(-c3nccn3C)nn3cc(-c4ccn(C(C)C)n4)c(C)c23)C1` (racemic) [Compound 2, rac 6-(1-Isopropyl-1H-pyrazol-3-yl)-4-(3-(methoxymethyl)pyrrolidin-1-yl)-5-methyl-2-(1-methyl-1H-imidazol-2-yl)pyrrolo[2,1-f][1,2,4]triazine], for which the “% inh of JNK in Panc-1” value in the assay on JNK phosphorylation is “F* (F* = 31-74% activation)”. Further, the “% inh of MAPK p38 in Panc-1” value in the assay with MAPK p38 phosphorylation is “H* (H* ≥ 100% activation)”. As for `COC1CCCN(c2nc(-c3nccn3C)nn3cc(-c4ccn(C(C)C)n4)c(C)c23)C1` (racemic) [Compound 4, rac 6-(1-Isopropyl-1H-pyrazol-3-yl)-5-methyl-2-(1-methyl-1H-imidazol-2-yl)-4-(3-(oxo-γ6-methyl)piperidin-1-yl)pyrrolo[2,1-f][1,2,4]triazine], in the assay on JNK phosphorylation, the “% inh of JNK in Panc-1” value is on record as “G* (G* = 75-99% activation)”. The “% inh of MAPK p38 in Panc-1” value in the assay with MAPK p38 phosphorylation is “G* (G* = 75-99% activation)”.

On to `COc1cc(Nc2nc(-c3nccn3C)nn3cc(-c4ccn(C(C)C)n4)c(-c4ccccc4)c23)ncn1` [Compound 22, 6-(1-Isopropyl-1H-pyrazol-3-yl)-N-(6-methoxypyrimidin-4-yl)-2-(1-methyl-1H-imidazol-2-yl)-5-phenylpyrrolo[2,1-f][1,2,4]triazin-4-amine], for which, in the assay with JNK phosphorylation, the “% inh of JNK in Panc-1” value is recorded as “H* (H* ≥ 100% activation)”. The “% inh of MAPK p38 in Panc-1” value in the assay on MAPK p38 phosphorylation was “H* (H* ≥ 100% activation)”.

For the compound `Cc1c(-c2ccn(C(C)C)n2)cn2nc(-c3nccn3C)nc(Nc3noc(C4CC4)n3)c12` [Compound 75, 5-Cyclopropyl-N-(6-(1-isopropyl-1H-pyrazol-3-yl)-5-methyl-2-(1-methyl-1H-imidazol-2-yl)pyrrolo[2,1-f][1,2,4]triazin-4-yl)-1,2,4-oxadiazol-3-amine], the inhibition at 20 µM on Rheb fell in the range of 1 to 25%. Still for that read-out and setting: then `COCCO[C@H]1C[C@H](Nc2nc(-c3nccn3C)nn3cc(-c4ccn(C(C)C)n4)c(C)c23)C1` [Compound 92, 6-(1-Isopropyl-1H-pyrazol-3-yl)-N-((1r,3r)-3-(2-methoxyethoxy)cyclobutyl)-5-methyl-2-(1-methyl-1H-imidazol-2-yl)pyrrolo[2,1-f][1,2,4]triazin-4-amine], with 0%. On to `CC(C)n1ccc(-c2cn3nc(-c4nccn4C)nc(O)c3c2-c2ccccc2)n1` [Compound 17, 6-(1-Isopropyl-1H-pyrazol-3-yl)-2-(1-methyl-1H-imidazol-2-yl)-5-phenylpyrrolo[2,1-f][1,2,4]triazin-4-ol], for which, in the assay on JNK phosphorylation, the “% inh of JNK in Panc-1” value is on record as 0 (0 = 0% inhibition). The “% inh of MAPK p38 in Panc-1” value in the assay on MAPK p38 phosphorylation was 0 (0 = 0% inhibition).

Take `COCC1CCN(c2nc(-c3nccn3C)nn3cc(-c4ccn(C(C)C)n4)c(-c4ccccc4)c23)C1.Cl` (racemic) [Compound 19, rac 6-(1-Isopropyl-1H-pyrazol-3-yl)-4-(3-(methoxymethyl)pyrrolidin-1-yl)-2-(1-methyl-1H-imidazol-2-yl)-5-phenylpyrrolo[2,1-f][1,2,4]triazine hydrochloride salt]: the “% inh of JNK in Panc-1” value in the assay with JNK phosphorylation is reported as “F* (F* = 31-74% activation)”. In the assay with MAPK p38 phosphorylation, the “% inh of MAPK p38 in Panc-1” value was “H* (H* ≥ 100% activation)”.
